Like-named read-outs stand apart in the source and are kept apart here.
Experiment: Human liver microsome (HLM) metabolic stability assay
Assay type: in vitro ADME
Settings: pooled human liver microsomes, HLM 0.5 mg/mL, test compound 0.5 μM, NADPH, 37° C.
Description: Microsomal Assay: Human liver microsomes (20 mg/mL) were obtained from Xenotech, LLC (Lenexa, Kans.). β-nicotinamide adenine dinucleotide phosphate, reduced form (NADPH), magnesium chloride (MgCl2), and dimethyl sulfoxide (DMSO) were purchased from Sigma-Aldrich. The incubation mixtures were prepared according to Table 2:
Determination of Metabolic Stability: Two aliquots of this reaction mixture were used for a compound of this invention. The aliquots were incubated in a shaking water bath at 37° C. for 3 minutes. The test compound was then added into each aliquot at a final concentration of 0.5 μM. The reaction was initiated by the addition of cofactor (NADPH) into one aliquot (the other aliquot lacking NADPH served as the negative control). Both aliquots were then incubated in a shaking water bath at 37° C. Fifty microliters (50 μL) of the incubation mixtures were withdrawn in triplicate from each aliquot at 0, 5, 10, 20, and 30 minutes and combined with 50 μL of ice-cold acetonitrile to terminate the reaction. The same procedure was followed for dasatinib and for the positive control, 7-ethoxycoumarin. Testing was done in triplicate.
Data analysis: The in vitro half-lives (t1/2s) for test compounds were calculated from the slopes of the linear regression of % parent remaining (ln) vs incubation time relationship. in vitro t1/2=0.693/k
k=−[slope of linear regression of % parent remaining(ln) vs incubation time]
Data analysis was performed using Microsoft Excel Software.
The metabolic stability of compounds of Formula I was tested using pooled liver microsomal incubations. Full scan LC-MS analysis was then performed to detect major metabolites. Samples of the test compounds, exposed to pooled human liver microsomes, were analyzed using HPLC-MS (or MS/MS) detection. For determining metabolic stability, multiple reaction monitoring (MRM) was used to measure the disappearance of the test compounds. For metabolite detection, Q1 full scans were used as survey scans to detect the major metabolites.

[1] = 0-30 minutes, Experiment 1, read-out: t1/2 (min) Experiment 1
[2] = average of Experiments 1 and 2, read-out: t1/2 (min) Average
[3] = 0-30 minutes, Experiment 2, read-out: t1/2 (min) Experiment 2

Row | Compound | half-life at 0.5 μM [1] [min] | half-life at 0.5 μM [2] [min] | half-life at 0.5 μM [3] [min]
1 | [2H]C([2H])(O)CN1CCN(c2cc(Nc3ncc(C(=O)Nc4c(Cl)cccc4C([2H])([2H])[2H])s3)nc(C)n2)CC1 [Compound 101, N-(2-Chloro-6-(methyl-d3)phenyl)-2-(6-(4-(2,2-d2-2-hydroxyethyl)piperazin-1-yl)-2-methylpyrimidin-4-ylamino)thiazole-5-carboxamide] | 17.7 | 17.9 | 
2 | [2H]C([2H])([2H])c1cccc(Cl)c1NC(=O)c1cnc(Nc2cc(N3CCN(C([2H])([2H])C([2H])([2H])O)CC3)nc(C)n2)s1 [Compound 103, N-(2-Chloro-6-(methyl-d3)phenyl)-2-(6-(4-(1,1,2,2-d4-2-hydroxyethyl)piperazin-1-yl)-2-methylpyrimidin-4-ylamino)thiazole-5-carboxamide] | 19.4 | 18.3 | 17.2

Now from value to compound:

Row | half-life at 0.5 μM [1] [min] | half-life at 0.5 μM [2] [min] | half-life at 0.5 μM [3] [min] | Compound
3 | 17.3 | 17.8 | 18.2 | [2H]C([2H])([2H])c1cccc(Cl)c1NC(=O)c1cnc(Nc2cc(N3C([2H])([2H])C([2H])([2H])N(C([2H])([2H])C([2H])([2H])O)C([2H])([2H])C3([2H])[2H])nc(C)n2)s1 [Compound 115, N-(2-Chloro-6-(methyl-d3)phenyl)-2-(6-(4-(1,1,2,2-d4-2-hydroxyethyl)-(piperazin-d8)-1-yl)-2-methylpyrimidin-4-ylamino)thiazole-5-carboxamide]
4 | 19.6 | 19.1 | 18.5 | [2H]C1([2H])N(CCO)C([2H])([2H])C([2H])([2H])N(c2cc(Nc3ncc(C(=O)Nc4c(C)cccc4Cl)s3)nc(C)n2)C1([2H])[2H] [Compound 117, N-(2-Chloro-6-methylphenyl)-2-(6-(4-(2-hydroxyethyl)-(piperazin-d8)-1-yl)-2-methylpyrimidin-4-ylamino)thiazole-5-carboxamide]
5 | 16 | 15.3 | 14.6 | Cc1nc(Nc2ncc(C(=O)Nc3c(C)cccc3Cl)s2)cc(N2CCN(CCO)CC2)n1 [Dasatinib, 2-{6-[4-(2-Hydroxy-ethyl)-piperazin-1-yl]-2-methyl-pyrimidin-4-ylamino}-thiazole-5-carboxylic acid (2-chloro-6-methyl-phenyl)-amide, reference compound]

— US8338425B2, “Heterocyclic kinase inhibitors” (Concert Pharmaceuticals, Inc., priority 2007, dated 2012)
